Measurements taken from patent US20160050895A1, “TRANSGENIC NON-HUMAN ORGANISMS WITH NON-FUNCTIONAL TSPO GENES” (AUSTRALIAN NUCLEAR SCIENCE AND TECHNOLOGY ORGANIZATION, priority 2013, published 2016).

What was measured:
TSPO [1] = target: T1, TSPO (Mus musculus, UniProt P50637); assay: Receptor film autoradiography of tissue sections with [3H]PK11195 and [125I]CLINDE; type: binding; design: Snap-frozen tissues were sectioned at 20 μm in a cryostat; from tissue; host or cells: mouse organ sections (brain, retina/eye, heart, adrenal, kidney, testis, spleen), C57BL/6 background; settings: 10 μM unlabelled ligand; tissue sections from TSPO+/+ and TSPO+/- mice
Description: Snap-frozen tissues were sectioned at 20 μm in a cryostat, thaw mounted on poly-L-lysine-coated slides and stored at −80° C. until day of experiment. On the day of the experiment, slides were thawed at room temperature and air dried with a cool stream of air. Total and non-specific binding were determined by incubation with 1 nM of 3H-PK11195 with or without the presence of 3 μM of PK11195 in 130 mM TRIS-HCl buffer (pH 7.4) at room temperature for 20 minutes. Following incubation, the slides were briefly dipped twice in 130 mM TRIS-HCl buffer, washed twice for 5 minutes in fresh 130 mM TRIS-HCl at room temperature. The slides were finally briefly rinsed 3 times in chilled distilled H2O, dried under a cool stream of air and allowed to air dried overnight. Sections were exposed to Kodak BioMax MR film along with tritium microscales with known activity concentrations in X-ray film cassettes. Films were developed after 33 days and digitized using a GS800 Calibrated Densitometer (Bio-Rad, Hercules, Calif., USA). Images were analysed with Quantity One imaging analysis program (Bio-Rad, Hercules, Calif. USA); to assess the level of 3H-PK11195 binding, regions of interest were drawn over the tissue and an average optical density/mm^2 was calculated. Data obtained from an individual film, subject to interfilm variations, were normalized against other films through the optical density oftritium microscales.
The organs including brain, retina, heart, kidney and testes used for film autoradiography were dissected from wild-type (TSPO^+/+), heterozygous (TSPO^+/−), and homozygous (TSPO^−/−) mice and snap-frozen in liquid nitrogen. Cryostat organ sections at 18 μm were placed onto superfrost slides (Menzel-Glaser, Braunschweig, Germany) and stored in the dark at −20° C. for no longer than 1 week before the experiment. […] Tritium standards (Amersham Biosciences, Uppsala, Sweden) co-exposed with the organ sections on each Hyperfilm-^3H (Kodak Film) at 4° C. for 60 days, were used to quantify the autoradiographically measured binding. The hyperfilm was developed using Kodak GBX developer and fixer (Sigma Aldrich, St. Louis, Mo., U.S.A.). The hyperfilm was air-dried overnight before being scanned using the ArtixScan 1800f flatbed scanner (Microtek, Hsinchu, Taiwan), with greyscale using a magnification of 400% and an optical resolution of 2400 pixels per inch. No pre-scanning manipulation or filter was applied.
(§1) Tissue sections from TSPO^+/+, TSPO^+/− and TSPO^−/− mice were incubated at room temperature for 20 min in 170 mM Tris-HCl pH 7.4 containing 1 nM [^3H]PK11195 (specific activity 84 Ci/mmol; Perkin Elmer, Waltham, Mass., USA), washed twice for 5 min in 170 mM Tris-HCl, rinsed with 3 dips in ice-cold MilliQ H2O, and dried. […] Displacement binding was carried out in the presence of PK11195 (10 μM), CLINDE (10 μM) and PBR-11 (10 μM).

TSPO [2] = assay: Film autoradiography of brain sections after facial nerve axotomy; type: binding, mouse; settings: homozygous (TSPO-/-) mice
Description: Procedures for facial nerve axotomy were approved by the animal ethics committee at the University of Sydney. Animals were anaesthetised using Isoflurane anaesthesia. Animals were monitored for a combination of respiration, heart rate, oxygen saturation and temperature during procedures using a variety of monitoring equipment to ensure anaesthetic depth. The surgical process commenced when foot-pad or plantar reflex could no longer be elicited. The fur on the ipsilateral (right) side of the neck was shaved from the ear downwards, and the skin cleaned using 70% ethanol. A small incision (0.5-0.7 cm in length) overlying the musculature covering the stylomastoid foramen was made. The facial nerve was identified, isolated and then transected completely. The skin of incision was closed with heal-glue. […] The animals were euthanized with CO2 3 days after the axotomy and brain tissue, including facial nerve nuclei in the brain stem and cerebellum, was immediately dissected, snap-frozen in liquid nitrogen, and then stored in −80° C. freezer until the cryostat section.
A small incision (0.5-0.7 cm) in the skin 0.5 cm dorsal and lateral to the ear was made and the facial nerve transected under an operating microscope. The incision was closed with 3M™ Vetbond™ Tissue Adhesive (St. Paul, Minn., USA). […] Mice were monitored carefully and euthanized with CO2 three days after the operation. Brains were dissected, placed in OCT, transferred to liquid nitrogen, and stored at −80° C. until cryo-sectioning.
as §1

TSPO [3] = assay: Radioligand membrane saturation binding with 3H-PK11195; design: species or system mouse; settings: renal tissue samples; TSPO knock-out mice
Description: Tissue samples were homogenised with T25 digital Ultra-Turrax homogenizer (Ika, Wilmington, N.C., USA) at speed setting 5 or 20000 rpm in approximately 45 mL of ice-cold TRIS buffer (pH 7.4), collected by centrifugation at 48000 g and the supernatant was then discarded. The procedure was then immediately repeated, this acts as an extra wash step to remove any soluble interfering substances to radioligand binding (Byland et al. 1993). Following the second centrifugation and removal ofsupernatant the samples were resuspended in approximately 50 volumes of ice-cold TRIS buffer (pH 7.4). Samples were aliquoted stored in −80° C. until required.
For TSPO knock-out mice studies, radioligand binding was performed using 3H-PK11195 racemate across a range of concentrations (FIG. 4). PK11195 is a TSPO specific probe. Total and non-specific binding was determined through 8 concentrations of 3H-PK11195 ranging from 0.56 nM to 20 nM. Non-specific binding was determined by the addition of 5 μM PK11195 to all concentrations of 3H-PK11195. […]
Organs were homogenised, washed twice in ice-cold 50 mM Tris-HCl (pH 7.4) by centrifugation at 48000×g, resuspended in 50 volumes of ice-cold 50 mM Tris-HCl, and protein concentration was determined using a BCA protein assay kit (Thermo Fisher Scientific). […] Non-specific binding was determined with 5 μM PK11195. […]

TSPO [4] = target: T1, TSPO; assay: In vivo PET/CT imaging with [18F]PBR111; design: from tissue; host or cells: organs of living mice (adrenal gland, kidney, heart, liver, lung, brain)
Description: (§2) PET scans of test mice were performed using a small-animal Inveon PET/CT scanner (Siemens, Knoxville, Tenn., USA). Before scanning, the mice were anesthetized with 5% (v/v) isoflurane and positioned in the PET/CT scanner. The isoflurane level was maintained 1-2% thereafter. The body temperature was maintained with a feedback regulated heating pad and physiologic parameters (respiration and body temperature) were monitored (BioVet; m2m Imaging Corp.) for the entire scanning period. Lacri-lube (Allergan) was placed in the mouse's eyes to prevent drying while the mouse was anesthetized. The PET scans commenced simultaneously with the tail vein injection of [^18F]PBR111 (8-18 MBq/100 μL, 0.2 nmol). After 40 min of imaging, PBR111 (1 mg/kg in 2% acetic acid-saline) was injected via tail vein to determine the non-specific accumulation in organs and imaged for further 10 minutes. Upon completion of PET scanning, mice were CT scanned for 10 minutes for anatomical information. At the end of the study the mice were euthanized immediately after imaging by cervical dislocation while the animal was still fully anaesthetised.
(§3) Mice, anaesthetised (5% (v/v) isoflurane and maintained at 1-2%, were scanned using a small-animal Invcon PET/CT scanner (Siemens, Knoxville, Tenn., USA) according to methods described previously (Disselhorst, J. A. et al. Image-quality assessment for several positron emitters using the NEMA NU 4-2008 standards in the Siemens Inveon small-animal PET scanner. J Nucl Med 51, 610-617, doi:10.2967/jnumed.109.068858 (2010); Mattner, F. et al. Central nervous system expression and PET imaging of the translocator protein in relapsing-remitting experimental autoimmune encephalomyelitis. J Nucl Med 54, 291-298, doi: 10.2967/jnumed.112.108894 (2013)). Body temperature was maintained with a feedback regulated heating pad and respiration monitored (BioVet; m2m Imaging Corp, Cleveland, Ohio, USA). Scans started with the tail vein injection of [^18F]PBR111 (8-18 MBq/100 μL, […]). After 40 min of imaging, PBR111 (1 mg/kg in 2% acetic acid-saline) was injected to determine non-specific accumulation in organs and imaged for 10 minutes. Then, mice underwent a 10-min CT-scan for anatomical information. All PET data were corrected, normalised and reconstructed with an OSEM3D-MAP algorithm to produced PET volumes of activity concentration (kBq/ml).

TSPO [5] = assay: In vivo PET/CT imaging with [18F]PBR111; design: species or system mouse
Description: as §2, §3

For CCN(CC)C(=O)Cc1c(-c2ccc(I)cc2)nc2ccc(Cl)cn12 [CLINDE], the “competitive binding: displacement of specific binding of [125I]CLINDE and [3H]PK11195 by unlabelled ligand” value (from here on “competitive binding: displacement”) (TSPO [1]) was “displaced”.

For CC[C@@H](C)N(C)C(=O)c1cc2ccccc2c(-c2ccccc2Cl)n1 [PK11195, 1-(2-chlorophenyl)-N-methyl-N-(1-r-methylpropyl)-3-isoquinolinecarboxamide], the “intensity of PK11195 binding in the cerebellum” value (TSPO [2]) was “the same as the surrounding background”, the “competitive binding: displacement” value (TSPO [1]) was “displaced” and the “binding of the TSPO-selective probe PK11195” value (TSPO [3]) was “no binding”.

For CCN(CC)C(=O)Cc1c(-c2ccc(OCCC[18F])cc2)nc2ccc(Cl)cn12 [[^18F]PBR111], the “distribution of ligand binding in PET/CT images” value (TSPO [4]; TSPO+/+ and TSPO+/- mice) was “in organs with known high TSPO expression, notably kidney and adrenal gland”, the “specific binding from radioligand kinetics and displacement with cold PBR111” value (TSPO [4]; TSPO+/+ and TSPO+/- mice, cold PBR111 (1 mg/kg)) was “indicates specific binding” and the “time course of radiotracer uptake” value (TSPO [4]; adrenal gland, kidney and liver, wild-type mice (TSPO+/+), until PBR111 at 40 min) was “slowly increases, but maintains a peak level”. For the same molecule, the “selectivity for TSPO” value (TSPO [4]; in vivo, validated against TSPO-/- null background) was “high selectivity”, the “intensity of radiotracer in PET images” value (TSPO [4]; wild-type mouse (TSPO+/+)) was “high intensity” and the “radiotracer observed in PET images” value (TSPO [5]; TSPO knock-out (homozygous, TSPO-/-) mouse) was “none”. For the same molecule, the “ligand binding in PET/CT images” value (TSPO [5]; TSPO-/- mice) was “no ligand binding”, the “specific binding from radioligand kinetics and displacement with cold PBR111” value (TSPO [5]; TSPO-/- mice, any organs, cold PBR111 (1 mg/kg)) was “do not have specific binding” and the “time course of radiotracer uptake” value (TSPO [5]; adrenal gland, kidney, liver and heart, TSPO knock-out mice (TSPO-/-)) was “rapidly reaches the peak and then declines to the non-specific level”.

PBR-111 was tested, and the “competitive binding: displacement” value (TSPO [1]) was “displaced”.
